Measurements reported in patent US8536187B2 (Gilead Sciences, Inc., priority 2008, dated 2013).

Assays:
[1] = CC50 assay (CellTiter-Glo) in Huh-7 HCV replicon cells; assay type: cell-based; conditions: human
Protocol: (§1) The anti-HCV activity of the pyrido[3,2-d]pyrimidine derivatives of this invention was tested in a human hepatoma Huh-7 cell line harboring a HCV replicon. The assay comprised the following steps: • Step 1: compound preparation and serial dilution: serial dilution is performed in 50% DMSO in a 384-well plate. A solution containing a compound at 100-fold concentration of the starting final serial dilution concentration was prepared in 50% DMSO and added to the pre-specified wells in column 1 of a polypropylene 384-well plate. The plate was then placed on a Precision 2000 Workstation to start the serial dilution. After the serial dilution, a volume of 2 μL of the solution was transferred from the 384-well plate to a 96-well cell culture plate containing 100 μL of cell media on a Biomek FX Workstation. The DMSO concentration in the final assay condition was 0.5% after cells are added to the plate and the total volume in each well is brought to 200 μL. • Step 2: to each well of the serial dilution plate prepared above, 100 μL of cell media containing 6000 suspended Huh-7 HCV replicon cells was added with a Multidrop workstation. The plates were incubated for 3 days at 37° C. with 5% CO2. • Step 3: detection: • a) for the EC50 assay, the media in a 96-well cell culture plate was aspirated with a Biotek EL405 plate-washer. A volume of 200 μL of a solution containing a 1:1 mixture of cell-lysis buffer (Promega, Luciferase Cell Culture Lysis 5× Reagent, cat. #E1531) and luciferase substrate solution (Promega, Luciferase Assay, cat.# E4550) was added to each well of the plate with Multidrop. The plate was incubated for 30 minutes at room temperature before the luminescence signal was measured with a TopCount plate-reader. • b) for the CC50 assay, a volume of 100 μL of pre-mixed CellTiter-Glo (Promega, cat.# G7572) solution is added directly to the cell culture in each well of the plate and the luminescence signal is measured with a TopCount plate-reader after 10 minutes of incubation at room temperature.

[2] = test system: HCV replicon in human hepatoma Huh-7 cell line; assay: Anti-HCV replicon assay, EC50 (luciferase luminescence); assay type: cell-based; conditions: Hepatitis C virus, Huh-7, 72 h
Protocol: as §1

SMILES	CC50 at 3 days ([1]; Table 2, 3 days incubation) [nM]	EC50 [2] [nM]	CC50 at 3 days ([1]; Table 1, 3 days incubation) [nM]
Cc1ccc(-c2ccc3nc(NCc4cccc(S(C)(=O)=O)c4)nc(NC4(C(F)(F)F)CC4)c3n2)cc1S(C)(=O)=O [Example 34, N^2-(3-(methylsulfonyl)benzyl)-6-(4-methyl-3-(methylsulfonyl)phenyl)-N^4-(1-(trifluoromethyl)cyclopropyl) pyrido[3,2-d]pyrimidine-2,4-diamine]	1000 to 10000	< 100	–
C[C@@H](Nc1nc(NC2(C(F)(F)F)CCCC2)c2nc(-c3ccc(F)cc3)ccc2n1)c1ccc(S(N)(=O)=O)cc1 [Example 71, (R)-4-(1-(6-(4-fluorophenyl)-4-(1-(trifluoromethyl)cyclo-pentylamino)pyrido[3,2-d]pyrimidin-2-ylamino)ethyl) benzenesulfonamide]	> 10000	250 to 2000	–
C#Cc1ccc2nc(N[C@H](C)c3ccc(S(N)(=O)=O)cc3)nc(OC3CCC3)c2n1 [Example 307, (R)-4-(1-(4-cyclobutoxy-6-ethynylpyrido[3,2-d]pyrimidin-2-ylamino)ethyl)benzene-sulfonamide]	1000 to 10000	250 to 2000	–
NS(=O)(=O)c1cc(F)cc(CNc2nc(NC3(C(F)(F)F)CC3)c3nc(C#CC4CC4)ccc3n2)c1 [Example 63, 3-((6-(2-cyclopropylethynyl)-4-(1-(trifluoromethyl)cyclopropylamino)pyrido[3,2-d]pyrimidin-2-ylamino)methyl)-5-fluorobenzenesulfonamide]	> 10000	< 100	–
CS(=O)(=O)Nc1cccc(CNc2nc(NC3(C(F)(F)F)CC3)c3nc(-c4ccc(F)cc4)ccc3n2)c1 [Example 87, N-(3-((6-(4-fluorophenyl)-4-(1-(trifluoromethyl)cyclopropyl-amino)pyrido[3,2-d]pyrimidin-2-ylamino)methyl)phenyl) methanesulfonamide]	> 10000	100 to 250	–
CC(C)Oc1nc(N[C@H](C)c2ccc(S(N)(=O)=O)cc2)nc2ccc(C#CC3CC3)nc12 [Example 304, (R)-4-(1-(6-(2-cyclopropyl-ethynyl)-4-isopropoxypyrido [3,2-d]pyrimidin-2-ylamino)ethyl)benzenesulfonamide]	> 10000	< 100	–
COc1ccc(-c2ccc3nc(NCc4ccc(S(N)(=O)=O)cc4)nc(NCC(F)(F)F)c3n2)cc1S(N)(=O)=O [Example 225, 4-((6-(4-methoxy-3-(aminosulfonyl)phenyl)-4-(2,2,2-trifluoroethylamino)pyrido[3,2-d]pyrimidin-2-ylamino)methyl)benzene-sulfonamide]	> 10000	< 100	–
CS(=O)(=O)c1cc(-c2ccc3nc(NCc4cc(F)cc(S(N)(=O)=O)c4)nc(NC4(C(F)(F)F)CC4)c3n2)ccc1Cl [Example 36, 3-((6-(4-chloro-3-(methylsulfonyl)phenyl)-4-(1-(trifluoromethyl)cyclopropyl-amino)pyrido[3,2-d]pyrimidin-2-ylamino)methyl)-5-fluorobenzenesulfonamide]	1000 to 10000	< 100	–
NS(=O)(=O)c1cccc(CNc2nc(NC3(C(F)(F)F)CCCCC3)c3nc(-c4ccc(F)cc4)ccc3n2)c1 [Example 66, 3-((6-(4-fluorophenyl)-4-(1-(trifluoromethyl)cyclohexylamino)pyrido[3,2-d]pyrimidin-2-ylamino)methyl)benzene-sulfonamide]	> 10000	100 to 250	–
C[C@@H](Nc1nc(NC2(C(F)(F)F)CCCCC2)c2nc(-c3ccc(F)cc3)ccc2n1)c1ccc(S(N)(=O)=O)cc1 [Example 67, (R)-4-(1-(6-(4-fluorophenyl)-4-(1-(trifluoromethyl)cyclohexylamino)pyrido[3,2-d]pyrimidin-2-ylamino)ethyl)benzenesulfonamide]	> 10000	250 to 2000	–
NS(=O)(=O)c1cc(CNc2nc(NCC(F)(F)F)c3nc(-c4ccc(F)cc4)ccc3n2)cc(C(F)(F)F)c1 [Example 8, 3-{[6-(4-Fluoro-phenyl)-4-(2,2,2-trifluoro-ethylamino)-pyrido[3,2-d]pyrimidin-2-ylamino]-methyl}-5-trifluoromethyl-benzenesulfonamide]	–	250 to 2000	> 25000
CS(=O)(=O)c1cccc(-c2ccc3nc(NCc4ccc(-n5ccnc5)cc4)nc(NCC(F)(F)F)c3n2)c1 [Example 193, N^2-(4-(1H-imidazol-1-yl)benzyl)-6-(3-(methylsulfonyl)phenyl)-N^4-(2,2,2-trifluoroethyl) pyrido[3,2-d]pyrimidine-2,4-diamine]	> 10000	< 100	–
C[C@@H](Nc1nc(NCC(F)(F)F)c2nc(C#CC(C)(C)C)ccc2n1)c1ccc(S(N)(=O)=O)cc1 [Example 285, (R)-4-(1-(6-(3,3-dimethylbut-1-ynyl)-4-(2,2,2-trifluoroethyl-amino)pyrido[3,2-d]pyrimidin-2-ylamino)ethyl)benzene-sulfonamide]	> 10000	250 to 2000	–
C#Cc1ccc2nc(N[C@H](C)c3ccc(S(N)(=O)=O)cc3)nc(O[C@@H]3C[C@@H]4C[C@@H]4C3)c2n1 [Example 314, 4-((R)-1-(4-((1S,3r,5R)-bicyclo[3.1.0]hexan-3-yloxy)-6-ethynylpyrido[3,2-d]pyrimidin-2-ylamino)ethyl) benzenesulfonamide]	> 10000	< 100	–
COc1ccc(-c2ccc3nc(NCc4ccc(S(N)(=O)=O)cc4)nc(NCC(F)(F)F)c3n2)cc1S(=O)(=O)C(F)(F)F [Example 165, 4-((6-(4-methoxy-3-(trifluoromethylsulfonyl)phenyl)-4-(2,2,2-trifluoroethylamino)pyrido[3,2-d]pyrimidin-2-ylamino)methyl)benzene-sulfonamide]	1000 to 10000	< 100	–
NS(=O)(=O)c1ccc(CNc2nc(NC3(C(F)(F)F)CC3)c3nc(-c4cccc(N5CCCS5(=O)=O)c4)ccc3n2)cc1 [Example 51, 4-((6-(3-(1,1-dioxo-isothiazolidin-2-yl)phenyl)-4-(1-(trifluoromethyl)cyclopropyl-amino)pyrido[3,2-d]pyrimidin-2-ylamino)methyl)benzene-sulfonamide]	1000 to 10000	250 to 2000	–
Cc1ccc(-c2ccc3nc(NCc4ccc(S(N)(=O)=O)cc4)nc(NC4(C(F)(F)F)CC4)c3n2)cc1S(C)(=O)=O [Example 29, 4-{[6-(3-methanesulfonyl-4-methylphenyl)-4-(1-trifluoromethyl-cyclopropylamino)-pyrido[3,2-d]pyrimidin-2-ylamino]-methyl}-benzenesulfonamide]	1000 to 10000	< 100	–
COc1ccc(-c2ccc3nc(NCc4ccc(S(N)(=O)=O)cc4)nc(NCC(F)(F)F)c3n2)cc1S(=O)(=O)C1CC1 [Example 157, 4-((6-(3-(cyclopropylsulfonyl)-4-methoxyphenyl)-4-(2,2,2-trifluoroethylamino)pyrido [3,2-d]pyrimidin-2-ylamino)methyl)benzenesulfonamide]	> 10000	< 100	–
C#Cc1ccc2nc(N[C@H](C)c3ccc(S(N)(=O)=O)cc3)nc(OC3(C)CC3)c2n1 [Example 295, (R)-4-(1-(6-ethynyl-4-(1-methylcyclopropoxy)pyrido [3,2-d]pyrimidin-2-ylamino)ethyl)benzenesulfonamide]	1000 to 10000	< 100	–
N#Cc1cc(F)ccc1-c1ccc2nc(NCc3cc(C(F)(F)F)cc(S(N)(=O)=O)c3)nc(NC3(C(F)(F)F)CC3)c2n1 [Example 99, 3-((6-(2-cyano-4-fluorophenyl)-4-(1-(trifluoromethyl)cyclopropyl-amino)pyrido[3,2-d]pyrimidin-2-ylamino)methyl)-5-(trifluoro-methyl)benzenesulfonamide]	1000 to 10000	< 100	–
C[C@@H](Nc1nc(NC2(C(F)(F)F)CC2)c2nc(-c3ccc(F)nc3)ccc2n1)c1ccc(S(N)(=O)=O)cc1 [Example 79, 4-((R)-1-(6-(6-fluoropyridin-3-yl)-4-(1-(trifluoromethyl)cyclopropylamino)pyrido[3,2-d]pyrimidin-2-ylamino)ethyl) benzenesulfonamide]	> 10000	< 100	–
COCCNc1nc(NCC(F)(F)F)c2nc(-c3cccc(S(C)(=O)=O)c3)ccc2n1 [Example 139, N^2-(2-methoxyethyl)-6-(3-(methylsulfonyl)phenyl)-N^4-(2,2,2-trifluoroethyl)pyrido [3,2-d]pyrimidine-2,4-diamine]	> 10000	< 100	–
COc1ccc(CNc2nc(NCC(F)(F)F)c3nc(-c4ccc(F)cc4)ccc3n2)cc1S(N)(=O)=O [Example 6]	–	100 to 250	> 25000
COc1ccc(-c2ccc3nc(NCc4cccc(F)c4)nc(NC4(C(F)(F)F)CC4)c3n2)cc1S(C)(=O)=O [Example 105, N^2-(3-fluorobenzyl)-6-(4-methoxy-3-(methylsulfonyl)phenyl)-N^4-(1-(trifluoromethyl)cyclopropyl)pyrido[3,2-d] pyrimidine-2,4-diamine]	> 10000	< 100	–
